Measurements taken from US8536187B2 (Gilead Sciences, Inc., priority 2008, dated 2013).

Columns and labels:
[1] = test system: HCV replicon in human hepatoma Huh-7 cell line; test: Anti-HCV replicon assay, EC50 (luciferase luminescence); format: cell-based; settings: Hepatitis C virus, Huh-7, 72 h
How it was run: (§1)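 Huh-7 cells carrying HCV replicon (6000/well) incubated with serially diluted compound, 0.5% DMSO final, 3 days at 37° C, 5% CO2. EC50 from luciferase luminescence after 30 min lysis/substrate at room temperature; CC50 from CellTiter-Glo luminescence after 10 min at room temperature.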

[2] = CC50 assay (CellTiter-Glo) in Huh-7 HCV replicon cells; format: cell-based; settings: human
How it was run: as §1

Structure (SMILES) | EC50 [1] [nM] | CC50 at 3 days ([2]; Table 2, 3 days incubation) [nM] | CC50 at 3 days ([2]; Table 1, 3 days incubation) [nM]
CC#Cc1ccc2nc(N[C@H](C)c3ccc(S(N)(=O)=O)cc3)nc(O[C@@H]3C[C@@H]4C[C@@H]4C3)c2n1 [Example 313, 4-((R)-1-(4-((1S,3r,5R)-bicyclo[3.1.0]hexan-3-yloxy)-6-(prop-1-ynyl)pyrido[3,2-d]pyrimidin-2-ylamino)ethyl) benzenesulfonamide] | < 100 | > 10000 | 
C[C@@H](Nc1nc(NCC(F)(F)F)c2nc(C#CC(C)(C)C)ccc2n1)c1ccc(S(N)(=O)=O)cc1 [Example 285, (R)-4-(1-(6-(3,3-dimethylbut-1-ynyl)-4-(2,2,2-trifluoroethyl-amino)pyrido[3,2-d]pyrimidin-2-ylamino)ethyl)benzene-sulfonamide] | 250 to 2000 | > 10000 | 
CCS(=O)(=O)c1cccc(-c2ccc3nc(NCc4ccc(-n5cncn5)cc4)nc(NCC(F)(F)F)c3n2)c1 [Example 181, N^2-(4-(1H-1,2,4-triazol-1-yl)benzyl)-6-(3-(ethylsulfonyl)phenyl)-N^4-(2,2,2-trifluoroethyl)pyrido [3,2-d]pyrimidine-2,4-diamine] | < 100 | > 10000 | 
C[C@@H](Nc1nc(OC2CC2)c2nc(-c3ccc(F)cc3)ccc2n1)c1ccc(S(N)(=O)=O)cc1 [Example 13, (R)-4-{1-[6-(4-Fluoro-phenyl)-4-cyclopropoxy-pyrido[3,2-d]pyrimidin-2-ylamino]-ethyl}-benzenesulfonamide] | 100 to 250 |  | 10000 to 25000
COc1ccc(-c2ccc3nc(NC(C)C#CC4CC4)nc(NCC(F)(F)F)c3n2)cc1S(N)(=O)=O (stereo not shown) [Example 239, 5-(2-(4-cyclopropylbut-3-yn-2-ylamino)-4-(2,2,2-trifluoroethylamino)pyrido [3,2-d]pyrimidin-6-yl)-2-methoxybenzenesulfonamide] | < 100 | 1000 to 10000 | 
C[C@@H](Nc1nc(OC2CC2)c2nc(C#CC3CC3)ccc2n1)c1ccc(S(N)(=O)=O)cc1 [Example 32, (R)-4-(1-(4-cyclopropoxy-6-(2-cyclopropylethynyl)pyrido[3,2-d]pyrimidin-2-ylamino)ethyl)benzenesulfonamide] | < 100 | > 10000 | 
CC(C)Oc1nc(NCc2ccc(-n3cncn3)cc2)nc2ccc(-c3ccc(OC(F)F)c(S(C)(=O)=O)c3)nc12 [Example 199, N-(4-(1H-1,2,4-triazol-1-yl)benzyl)-6-(4-(difluoromethoxy)-3-(methylsulfonyl)phenyl)-4-isopropoxypyrido[3,2-d] pyrimidin-2-amine] | < 100 | > 10000 | 
CCOc1ccc(-c2ccc3nc(NCc4cc(Cl)cc(S(N)(=O)=O)c4)nc(NCC(F)(F)F)c3n2)cn1 [Example 233, 3-chloro-5-((6-(6-ethoxypyridin-3-yl)-4-(2,2,2-trifluoroethylamino)pyrido [3,2-d]pyrimidin-2-ylamino)methyl)benzenesulfonamide] | < 100 | 1000 to 10000 | 
NS(=O)(=O)c1ccc(CNc2nc(NCC(F)(F)F)c3nc(-c4ccc(F)cc4)ccc3n2)cc1F [Example 3, 2-Fluoro-4-{[6-(4-fluoro-phenyl)-4-(2,2,2-trifluoro-ethylamino)-pyrido[3,2-d]pyrimidin-2-ylamino]-methyl}-benzenesulfonamide] | 250 to 2000 |  | > 25000
COc1nc(N[C@H](C)c2ccc(S(N)(=O)=O)cc2)nc2ccc(C#CC3CC3)nc12 [Example 315, (R)-4-(1-(6-(2-cyclopropyl-ethynyl)-4-methoxypyrido [3,2-d]pyrimidin-2-ylamino)ethyl)benzenesulfonamide] | 250 to 2000 | > 10000 | 
C#Cc1ccc2nc(N[C@H](C)c3ccc(S(N)(=O)=O)cc3)nc(OC3CCC3)c2n1 [Example 307, (R)-4-(1-(4-cyclobutoxy-6-ethynylpyrido[3,2-d]pyrimidin-2-ylamino)ethyl)benzene-sulfonamide] | 250 to 2000 | 1000 to 10000 | 
CS(=O)(=O)c1cc(-c2ccc3nc(NCc4cccnc4)nc(NCC(F)(F)F)c3n2)ccc1OC(F)F [Example 178, 6-(4-(difluoromethoxy)-3-(methylsulfonyl)phenyl)-N^2-(pyridin-3-ylmethyl)-N^4-(2,2,2-trifluoroethyl)pyrido [3,2-d]pyrimidine-2,4-diamine] | < 100 | 1000 to 10000 | 
FC(F)(F)C1(Nc2nc(NCc3ccc(-n4cncn4)cc3)nc3ccc(-c4ccc(NC5CC5)nc4)nc23)CC1 [Example 127, N^2-(4-(1H-1,2,4-triazol-1-yl)benzyl)-6-(6-(cyclopropylamino)pyridin-3-yl)-N^4-(1-(trifluoromethyl)cyclopropyl)pyrido[3,2-d] pyrimidine-2,4-diamine] | < 100 | 1000 to 10000 | 
C[C@@H](Nc1nc(NC2(C(F)(F)F)CC2)c2nc(-c3ccc(F)cc3)ccc2n1)c1ccc(S(N)(=O)=O)cc1 [Example 24, (R)-4-{1-[6-(4-fluorophenyl)-4-(1-trifluoromethyl-cyclopropylamino)-pyrido[3,2-d]pyrimidin-2-ylamino]-ethyl}-benzenesulfonamide] | < 100 | > 10000 | 
Cc1cc(S(N)(=O)=O)ccc1[C@@H](C)Nc1nc(NC2(C(F)(F)F)CC2)c2nc(-c3ccc(F)cc3)ccc2n1 [Example 117, (R)-4-(1-(6-(4-fluorophenyl)-4-(1-(trifluoromethyl)cyclopropyl-amino)pyrido[3,2-d]pyrimidin-2-ylamino)ethyl)-3-methylbenzene-sulfonamide] | < 100 | > 10000 | 
N#Cc1cc(CNc2nc(NC3(C(F)(F)F)CC3)c3nc(-c4ccc(F)cc4)ccc3n2)cc(S(N)(=O)=O)c1 [Example 49, 3-cyano-5-((6-(4-fluorophenyl)-4-(1-(trifluoromethyl)cyclopropyl-amino)pyrido[3,2-d]pyrimidin-2-ylamino)methyl)benzene-sulfonamide] | < 100 | > 10000 | 
NS(=O)(=O)c1cc(-c2ccc3nc(NCc4ccc(-n5cncn5)cc4)nc(NC4(C(F)(F)F)CC4)c3n2)ccc1Cl [Example 37, 5-(2-(4-(1H-1,2,4-triazol-1-yl)benzylamino)-4-(1-(trifluoromethyl)cyclopropyl-amino)pyrido[3,2-d]pyrimidin-6-yl)-2-chlorobenzenesulfonamide] | < 100 | 1000 to 10000 | 
Cc1ccc(-c2ccc3nc(N[C@H](C)c4ccc(S(N)(=O)=O)cc4)nc(NCC(F)(F)F)c3n2)cc1S(C)(=O)=O [Example 152, 4-((R)-1-(6-(4-methyl-3-(methylsulfonyl)phenyl)-4-(2,2,2-trifluoroethylamino)pyrido[3,2-d]pyrimidin-2-ylamino)ethyl)benzene-sulfonamide] | < 100 | > 10000 | 
COc1ccc(-c2ccc3nc(NCc4ccc(S(N)(=O)=O)cc4)nc(NCC(F)(F)F)c3n2)cc1S(=O)(=O)C1CC1 [Example 157, 4-((6-(3-(cyclopropylsulfonyl)-4-methoxyphenyl)-4-(2,2,2-trifluoroethylamino)pyrido [3,2-d]pyrimidin-2-ylamino)methyl)benzenesulfonamide] | < 100 | > 10000 | 
CC(Nc1nc(NCC(F)(F)F)c2nc(-c3cccc(S(C)(=O)=O)c3)ccc2n1)c1ccc(-n2cncn2)cc1 (stereo not shown) [Example 19, 6-(3-Methanesulfonyl-phenyl)-N2-[1-(4-[1,2,4]triazol-1-yl-phenyl)-ethyl]-N4-(2,2,2-trifluoro-ethyl)-pyrido[3,2-d]pyrimidine-2,4-diamine] | < 100 |  | 10000 to 25000
